Data as given in patent US8410114B2, “2-pyrazinone derivatives for the treatment of disease or condition in which inhibition of neutrophil elastase activity is beneficial” (AstraZeneca AB, priority 2006, dated 2013).

Target: T1, Human Neutrophil Elastase (HNE) (Homo sapiens, UniProt P08246)
T1 construct: Human Neutrophil Elastase (HNE) purified from serum (Calbiochem art. 324681); purchased Calbiochem 324681; host or cells: purified from human material ('serum' in the source)
T1 sequence (P08246 30-247 limits assumed): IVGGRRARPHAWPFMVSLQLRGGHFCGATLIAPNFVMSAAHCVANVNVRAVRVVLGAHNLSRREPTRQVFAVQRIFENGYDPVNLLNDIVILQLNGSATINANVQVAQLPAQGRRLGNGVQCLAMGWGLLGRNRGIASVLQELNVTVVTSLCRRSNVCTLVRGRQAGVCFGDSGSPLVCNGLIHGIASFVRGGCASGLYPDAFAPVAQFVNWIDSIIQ
Assay: Human Neutrophil Elastase Quenched-FRET Assay
Format: biochemical
Settings: HNE 1.7 nM, substrate MeOSuc-AAPV-AMC 100 μM, 15 min preincubation, 30 min incubation at room temperature; read-out: Inhibition of Human Neutrophil Elastase IC50
Protocol: Human Neutrophil Elastase Quenched-FRET Assay
The assay uses Human Neutrophil Elastase (HNE) purified from serum (Calbiochem art. 324681; Ref. Baugh, R. J. et al., 1976, Biochemistry. 15, 836-841). HNE was stored in 50 mM sodium acetate (NaOAc), 200 mM sodium chloride (NaCl), pH 5.5 with added 30% glycerol at −20° C. The protease substrate used was Elastase Substrate V Fluorogenic, MeOSuc-AAPV-AMC (Calbiochem art. 324740; Ref. Castillo, M. J. et al., 1979, Anal. Biochem. 99, 53-64). The substrate was stored in dimethyl sulphoxide (DMSO) at −20° C. The assay additions were as follows: Test compounds and controls were added to black 96-well flat-bottom plates (Greiner 655076), 1 μL in 100% DMSO, followed by 30 μL HNE in assay buffer with 0.01% Triton (trade mark) X-100 detergent. The assay buffer constitution was: 100 mM Tris(hydroxymethyl)aminomethane (TRIS) (pH 7.5) and 500 mM NaCl. The enzyme and the compounds were incubated at room temperature for 15 minutes. Then 30 μl substrate in assay buffer was added. The assay was incubated for 30 minutes at room temperature. The concentrations of HNE enzyme and substrate during the incubation were 1.7 nM and 100 μM, respectively. The assay was then stopped by adding 60 μl stop solution (140 mM acetic acid, 200 mM sodium monochloroacetate, 60 mM sodium acetate, pH 4.3). Fluorescence was measured on a Wallac 1420 Victor 2 instrument at settings: Excitation 380 nm, Emission 460 nm. IC50 values were determined using Xlfit curve fitting using model 205.

| IC50 | SMILES |
| --- | --- |
| 0.33 nM | CNC(=O)c1nc(-c2ccnn2-c2ccc(C#N)cc2)c(C)n(-c2cccc(C(F)(F)F)c2)c1=O [Example 1, 6-[2-(4-Cyano-phenyl)-2H-pyrazol-3-yl]-5-methyl-3-oxo-4-(3-trifluoromethyl-phenyl)-3,4-dihydro-pyrazine-2-carboxylic acid methylamide] |
| 0.32 nM | Cc1c(-c2ccnn2-c2ccc(C#N)cc2)nc(C(=O)NCc2ccc(S(C)(=O)=O)cn2)c(=O)n1-c1cccc(C(F)(F)F)c1 [Example 2, 6-[2-(4-Cyano-phenyl)-2H-pyrazol-3-yl]-5-methyl-3-oxo-4-(3-trifluoromethyl-phenyl)-3,4-dihydro-pyrazine-2-carboxylic acid (5-methanesulfonyl-pyridin-2-ylmethyl)-amide] |
| 1 nM | Cc1c(-c2ccnn2-c2ccc(C#N)nc2)nc(C(=O)NC2CC2)c(=O)n1-c1cccc(C(F)(F)F)c1 [Example 12, 6-[1-(6-Cyanopyridin-3-yl)-1H-pyrazol-5-yl]-N-cyclopropyl-5-methyl-3-oxo-4-[3-(trifluoromethyl)phenyl]-3,4-dihydropyrazine-2-carboxamide] |
| 0.61 nM | Cc1c(-c2ccnn2-c2ccc(C#N)cc2)nc(C(=O)NCC(=O)O)c(=O)n1-c1cccc(C(F)(F)F)c1 [Example 16, 2-[[6-[2-(4-Cyanophenyl)pyrazol-3-yl]-5-methyl-3-oxo-4-[3-(trifluoromethyl)phenyl]-3,4-dihydro-pyrazine-2-carbonyl]amino]acetic acid] |
